Consider three compounds from patent US8168650B2, “Therapeutic uses of bicyclic ligands of sigma 2 receptor” (priority 2006, dated 2012).

“Also recorded” adds a separate entry of the source. Read-outs that look alike come from different tables or passages of the source.

In assay [1] the test system is MDA-MB-435 breast cancer cells. The assay is described as follows: Cytotoxicity assay (MTS) in MDA-MB-435 cells. Type of assay: cell-based. As to conditions: Homo sapiens. The method, then: Cytotoxicity assay. The cytotoxic effect of the sigma ligands on EMT-6 cells was measured using the MTS colorimetric assay. MTS is bioreduced by cells into a colored formazan product with an absorbance at 490 nm. The quantity of the products is directly proportional to the number of viable cells in the culture. The MTS assay was performed using the CellTiter96Aqueous One Solution Assay (Promega, Madison, Wis.) according to the manufacturer's protocol. Briefly, EMT-6 cells were seeded at 2×10^3/well in 96-well plates on the day prior to treatment with the sigma ligand. Each sigma ligand was first dissolved in DMSO, and then serially diluted to get the desired concentration. The final concentration of DMSO in the cell culture medium was no more than 0.5%. After a 24 hour or 48 hour treatment with the various sigma ligands, cell death was assessed as follows. The CellTiter 96 AQueous One Solution Reagent was added to each well, and the plate was incubated for 2 hours at 37° C. The plate was then read at 490 nm in a Victor 3 plate reader (PerkinElmer Life and Analytical Sciences, Shelton, Conn.).
In these experiments, sigma ligands WC-II-26, SV119 and RHM-I-138 were evaluated for their efficacy to kill human MDA-MB-435 breast cancer cells. Cells were treated and analyzed as described for EMT-6 cells in Example 33. In these experiments cells were incubated for 24 hours or 48 hours with various concentrations of the sigma ligands.

Another assay concerns caspase-3/7. The assay is described as follows: Caspase-3/7 whole cell assay in EMT-6 cells. As to conditions: EMT-6, 40 μM, 24 h. Type of assay: cell-based, mouse. The procedure:
Detection of intracellular cellular caspase-3/7 activity. The activation of endogenous caspase-3/7 by the sigma ligands was measured using the CellProbe HT caspase-3/7 whole cell assay (Beckman Coulter, Fullerton, Calif.). The cell permeable, nonfluorescent bisamide substrate, Z-DEVD-R110, was added to the intact cells to detect apoptosis. Upon specific cleavage by caspase-3/7, Z-DEVD-R110 is converted to a fluorescent compound, and the fluorescent signal can be measured as follows. After adding the substrate, Z-DEVD-R110, to the cells treated with a sigma ligand, the plate was incubated for an additional 1.5-2 hour, and the resulting fluorescence measured using a Victor 3 microplate fluorometer at excitation and emission wavelengths of 485 nm and 535 nm, respectively.
In these experiments, to assess whether caspase-like activity was involved in the cytotoxic pathway, a caspase-3/7 whole cell assay was performed. This assay has advantages over other cell-based assays which use a cell lysate to monitor the activity of caspase-3/7. By not disrupting the cells, the whole cell assay tends to minimize the background noise contributed by non-specific protease activity in the cell lysates. Consequently, a greater specificity for the caspase-3/7 activity can be achieved with the whole cell assay. […] The accumulation of the fluorescent product was quantified using a fluorescence microplate reader. […]

The target of assay [2] is T1, σ1 receptor (Cavia porcellus, UniProt Q60492).
T1 sequence (Q60492 whole entry): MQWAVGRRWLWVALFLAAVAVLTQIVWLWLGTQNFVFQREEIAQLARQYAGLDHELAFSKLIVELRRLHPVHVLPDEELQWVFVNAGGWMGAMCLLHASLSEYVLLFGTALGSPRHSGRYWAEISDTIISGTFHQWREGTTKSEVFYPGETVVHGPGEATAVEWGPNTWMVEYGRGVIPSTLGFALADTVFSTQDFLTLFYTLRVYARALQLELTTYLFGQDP
Experimental: (§1) In vitro binding studies were conducted in order to determine the affinity of the target compounds at σ1 and σ2 receptors.
(§2) In this example, test compounds were dissolved in N,N-dimethylformamide (DMF), dimethylsulfoxide (DMSO) or ethanol and then diluted in 50 mM Tris-HCl, pH 7.4 buffer containing 150 mM NaCl and 100 mM EDTA. Membrane homogenates were made from guinea pig brain for σ1 binding assays and rat liver for σ2 binding assays. Membrane homogenates were diluted with 50 mM Tris-HCl buffer, pH 8.0, and incubated at 25° C. in a total volume of 150 μL in 96-well plates with the radioligand and test compounds with concentrations ranging from 0.1 nM to 10 μM. After incubation was completed, the reactions were terminated by the addition of 150 μL of ice-cold wash buffer (10 mM Tris-HCl, 150 mM NaCl, pH 7.4) using a 96-channel transfer pipette (Fisher Scientific, Pittsburgh, Pa.), and the samples harvested and filtered rapidly through 96-well fiberglass filter plate (Millipore, Billerica, Mass.) that had been presoaked with 100 μL of 50 mM Tris-HCl buffer, pH 8.0, for 1 h. Each filter was washed three times with 200 μL of ice cold wash buffer.
(§3) Ki values were calculated using the method of Cheng and Prusoff20 and represent mean values±SEM.
In assay [3] the test system is pancreatic cancer cell lines (Panc-02, CFPAC-1, AsPC-1, Panc-1). The assay is described as follows: Apoptosis in pancreas cancer cell lines (TUNEL / cleaved caspase-3, flow cytometry). The format is cell-based, mouse, human. The conditions noted are these: 24 hours incubation. The procedure: Tumor cells were seeded at a density of approximately 0.2×10^6 cells per well in 12-well plates in 1.0 ml culture medium. Cells were split and pre-incubated at 37° C. in humidified 5% CO2 for more than 24 hours (Panc-02) and 48 hours (CFPAC-1, AsPC-1, Panc-1) to insure uniform growth conditions. Compounds were dissolved in DMSO and added to the culture medium at the concentrations indicated. The final concentration of DMSO in the cell culture medium was less than 1%. The cells were then incubated for 24 hours at 37° C. in humidified 5% CO2. The extent of apoptosis was subsequently measured as previously reported (Guelen, L., et al., Oncogene 2004, 23: 1153-1165). Briefly, staining was performed on trypsin-EDTA treated cultures that had been fixed with 1% paraformaldehyde and 90% methanol. Cell pellets were resuspended in TUNEL reagent (APO-BRDU kit, San Diego, Calif.) or cleaved caspase-3 antibody (Cell Signaling Technology, Inc. Boston, Mass.) and incubated overnight at room temperature (TUNEL) or 4° C. (cleaved caspase-3). After washing, cells were resuspended in fluorescein antibody or 7-AAD buffer and incubated for 1 hour at room temperature. Cell-associated fluorescence was determined using a flow cytometry (FACScan, BD Biosciences) and analyzed with CellQuest software (BD Biosciences).
At the highest dose tested (10 μM), all sigma-2 receptor ligands induced an additional 10-20% of the cells to undergo apoptosis (FIG. 15A). […] The pan-caspase inhibitor (Z-VAD-fmk) and caspase-3/7 inhibitor (DEVD-CHO) prevented sigma-2 receptor ligand-induced apoptosis in panc-02 cells, while the caspase-1 inhibitor (YVAD-CHO) had no effect (FIG. 15B).

The subject of assay [4] is EMT-6 cells. The assay is described as follows: Colony formation assay on Doxorubicin-treated EMT-6 cells. The format is cell-based, mouse. The procedure:
This Example illustrates colony formation assay on Doxorubicin (“Dox”)-treated EMT-6 cells in the presence or absence of 2 μM WC-II-26. The structures of the sigma ligands used in this and subsequent examples are illustrated in FIG. 5 and FIG. 6.

For assay [5], the system named is EMT-6 cells. The assay is described as follows: TUNEL assay, enhancement of Dox-induced apoptosis in EMT-6 cells. Type of assay: cell-based, mouse. The procedure:
In these experiments, a TUNEL assay was used to detect apoptotic cells with damaged DNA strands. […] Furthermore, EMT-6 cells treated with Dox at 30 nM yielded only 10% TUNEL-positive cells. However, when EMT-6 cells were treated with 2 μM WC-II-26 plus 30 nM Dox, the percentage of TUNEL-positive cells rose to 43.3%.

The test system of another assay is Panc-02 tumors. Briefly: Antitumor effect in vivo: tumor growth and survival, Panc-02 model. Further details: species or system C57BL/6 mice. The conditions noted are these: listed as WC26. The method, then:
Mean tumor diameter was measured three times each week.

For assay [6], the target named is T1, σ1 receptor. The assay is described as follows: biochemical.
Experimental: as §1, §2, §3
[7] abbreviates: read-out: IC50 (μM), MDA-MB-435, 24 hours.
Setting [8] is: MDA-MB-435, 48 hours, read-out: IC50 (μM, 48 hours).

As to `O[C@@H](CN1C2CCC1CC(c1ccccc1)C2)c1cccc(Br)c1` (stereo partly drawn) [RHM-I-138], the IC50 (as a rule, the midpoint of a concentration-inhibition curve) came to 26.7 ± 4.3 µM in assay [1] (setting [7]) and 19 ± 1.8 µM in assay [1] (setting [8]). Moreover, in the assay on caspase-3/7, the “increase of endogenous caspase-3/7 activity compared with untreated cells” value is given as 2 fold. For the same compound, the Ki (commonly a measure of affinity in units of concentration, obtained from inhibition or displacement) at σ1 receptor [2] is 0.544 µM.

Take `COc1ccc(C)cc1NC(=O)OC1CC2CCCC(C1)N2CCCCCCN` (stereo not drawn) [SV119]: the IC50 was 36.7 ± 3.3 µM in assay [1] (setting [7]) and 20.6 ± 2.7 µM in assay [1] (setting [8]). In addition, the “increase of endogenous caspase-3/7 activity compared with untreated cells” value in the assay on caspase-3/7 is given as 2 fold. Also, the “apoptosis in all pancreas cancer cell lines tested” value in assay [3] was “dose-dependent apoptosis”.

In the case of `COc1ccc(C)cc1NC(=O)O[C@H]1C[C@H]2CCC[C@@H](C1)N2Cc1ccc(N(C)C)cc1` [WC-II-26], the IC50 in assay [1] (setting [7]) came out at 51.6 ± 6 µM; in assay [1] (setting [8]), 43.2 ± 2 µM. Further, the “number of colonies formed compared to control cells” value in the assay with EMT-6 cells [4] (EMT-6, 2 μM WC-II-26 alone) was “not changed significantly”. In addition, the “ability of survival reduced (% of control)” value in the assay with EMT-6 cells [4] (EMT-6, 2 μM WC-II-26 combined with 10 nM Dox) was 38 % of control; in the assay on EMT-6 cells [4] (EMT-6, 2 μM WC-II-26 combined with 20 nM Dox), 77 % of control; in the assay on EMT-6 cells [4] (EMT-6, 2 μM WC-II-26 combined with 30 nM Dox) it was 86 % of control; in the assay on EMT-6 cells [4] (EMT-6, 2 μM WC-II-26 combined with 40 nM Dox), 92 % of control. Further, the TUNEL-positive cells result in the assay with EMT-6 cells [5] (EMT-6, 2 μM WC-II-26 alone) was “less than 5%”; in the assay on EMT-6 cells [5] (EMT-6, 2 μM WC-II-26 plus 30 nM Dox), 43.3%. Moreover, the “apoptosis in all pancreas cancer cell lines tested” value in assay [3] is “dose-dependent apoptosis”. For the same compound, the “tumor growth / tumor size versus vehicle control” value with Panc-02 tumors (50 or 100 mg/kg (1 or 2 mg/day) intraperitoneal once a day for five days) is recorded as “tumors shrank; also recorded: smaller tumors”. The “survival (tumor diameter 15 mm or ulceration as endpoint)” value in the assay on Panc-02 tumors (50 or 100 mg/kg (1 or 2 mg/day) once a day for five days, p=0.002) was “significant survival benefit; also recorded: compared favorably”. Besides, at σ1 receptor [6], the Ki was determined as 5.57 µM.
